Where a SMILES comes first, the peptide text is derived from it. [ ]: non-standard residue; d: D form. Dap = NC[C@H](N)C(=O)O
Experiments:
[1] = Scavenging assay of 2-nonenal; assay type: biochemical; conditions: 2 mM peptide in 10 mM PBS mixed with equal volume of 100 μM aldehyde in acetonitrile, 37° C., 24 h, HPLC of remaining aldehyde
Description: Scavenging assay of 2-nonenal.
(§1) A solution was prepared from peptides in a 10 mM PBS buffer at a concentration of 2 mM, as well as a solution of the aldehyde in acetonitrile at a concentration of 100 μM. Equal volumes of peptide solutions and aldehyde were mixed and left to react at 37° C. for 24 h. The scavenging efficiency of the RCS was measured by HPLC analysis of the remaining aldehyde content in the reaction mixture.

[2] = Scavenging assay of 4-hydroxy-2-nonenal; assay type: biochemical; conditions: 2 mM peptide in 10 mM PBS mixed with equal volume of 100 μM aldehyde in acetonitrile, 37° C., 24 h, HPLC of remaining aldehyde
Description: Scavenging assay of 4-hydroxy-2-nonenal.
as §1, with “mixed and were left to” for “mixed and left to”

[3] = Reduction of the odor emitted by aldehyde 2-nonenal (sniff test); conditions: 0.05% peptide in phosphate buffer 10 mM pH 7-7.5 added to equal volume of 0.00089% 2-nonenal in acetonitrile, odor at time zero and 24 h, panel of 3 experts
Description: Reduction of the Odor Emitted by Aldehyde 2-nonenal
We evaluated the reduction of the odor given off by aldehyde 2-nonenal after the addition of a solution containing 0.05% of H-L-Dpr-L-Ala-L-Ala-L-His-OH through an olfactory test (“sniff test”) conducted by a panel of 3 independent experts.
We prepared a solution of 2-nonenal at 0.00089% in acetonitrile to which was added an equal volume of phosphate buffer 10 mM pH 7-7.5 or H-L-Dpr-L-Ala-L-Ala-L-His-OH to 0.05% in phosphate buffer 10 mM pH 7-7.5. We evaluated the odor intensity given off at time zero and 24 h after creating the mixture of aldehyde and peptide, performing the measurements in a room heated to 24° C. and with controlled humidity at 60% and statistically analyzed the values obtained using the Wilcoxon Matched Paired test.

[4] = system: human keratinocytes; assay: Photoprotection efficiency in cultured human keratinocytes (solar simulation lamp, Neutral Red viability); assay type: cell-based; conditions: 1 mg/ml peptide, viability compared with irradiated and non-irradiated control cells
Description: Testing the photoprotection efficiency of H-L-Dpr-D-Ala-L-Pro-L-His-OH, H-L-Dpr-D-Ala-L-Ala-L-His-OH and H-L-Dp- L-Ala-L-Pro-L-His-OH in cultured human keratinocytes.
Human keratinocytes were maintained in culture for 24 h on 96 well plates to form monolayers and the cells were pre-incubated in the dark with 1 mg/ml of H-L-Dpr-D-Ala-L-Pro-L-His-OH, H-L-Dpr-D-Ala-L-Ala-L-His-OH, H-L-Dpr-L-Ala-L-Pro-L-His-OH or phosphate buffered saline (control) for one hour at 37° C. and humidified air with 5% CO2. Subsequently, cells were irradiated with a solar simulation lamp (with an energy of 37 J/cm^2 at room temperature for 150 min in the case of H-L-Dpr-D-Ala-L-Pro-L-His-OH). A control plate was kept in the dark during the same time at room temperature. After the period of irradiation, the cell medium was replaced by a fresh medium and the cells were incubated for an additional 24 h.
Cell viability was determined by the Neutral Red dye, measuring the absorbance at 540 nm in a spectrophotometer.
The photoprotection efficiency was determined by comparing the viability obtained in cells treated with H-L-Dpr-D-Ala-L-Pro-L-His-OH, H-L-Dpr-D-Ala-L-Ala-L-His-OH or H-L-Dpr-L-Ala-L-Pro-L-His-OH on the response of irradiated and non-irradiated control cells.

[5] = system: Primary cultures of human melanocytes; assay: Protective capacity against DNA degradation (UVA, alkaline comet assay); assay type: cell-based; conditions: 1.0 μg/mL for 2 h at 37° C., then UVA 1.0 J/cm^2, alkaline comet assay
Description: Test of the Protective Capacity of DNA Degradation
Primary cultures of human melanocytes (10^5 cells/plate) were treated with 1.0 μg/mL of H-L-Dpr-D-Ala-L-Pro-L-His-OH for 2 h at 37° C. Subsequently, the cultures were irradiated with UVA at 1.0 J/cm^2 for no longer than 3min at 4° C. and the extent of the damage induced to DNA was determined by alkaline comet assay [De Meo M., Laget M., Castegnaro M. and Dumenil G. (1991) “Genotoxic activity of potassium permanganate in acidic solutions” Mutat. Res 260:295-306].

[6] = system: Primary cultures of human fibroblasts; assay: Repair capacity of DNA degradation (UVB, alkaline comet assay); assay type: cell-based; conditions: UVB 0.4 J/cm^2 30 s, versus intrinsic repair efficiency of the cells
Excerpt: Testing the Repair Capacity of DNA Degradation
Primary cultures of human fibroblasts (10^5 cells/plate) were irradiated to 0.4 J/cm^2 UVB for 30 seconds. […]

Row | Compound | Scavenging % of NE aldehyde [1] | Scavenging % of HNE aldehyde [2] | other results
1 | NCCCC[C@H](NC(=O)[C@H](Cc1c[nH]cn1)NC(=O)CN)C(=O)O [GHK, glycyl-histidyl-lysine, reference compound] (H-Gly-His-Lys-OH) | 24.7% | 82.1% | –
2 | H-L-Dpr-L-Ala-D-Asp-L-His-OH | 83.1% | 94.1% | –
3 | H-L-Dpr-L-Ala-L-Asn-L-His-OH | 73.1% | – | –
4 | H-L-Dpr-L-Ala-L-Ala-L-His-OH | 74.6% | – | reduction of the odor given off by 2-nonenal [3]: 15.6%
5 | H-L-Dpr-L-Ala-L-Ala-L-His-NH2 | 94.1% | 96.0% | –
6 | H-L-Dpr-L-Ala-L-Glu-L-His-NH2 | 92.6% | – | –
7 | H-L-Dpr-D-Ala-L-Ala-L-His-NH2 | 98.2% | 97.7% | –
8 | H-L-Dpr-L-Ala-L-Asn-L-His-NH2 | 95.3% | – | –
9 | NCCC(=O)N[C@@H](Cc1cnc[nH]1)C(=O)O [Carnosine, carnosine, reference compound] | 70.3% | 89.4% | –
10 | H-L-Dpr-L-Ala-L-Asp-L-His-OH | – | 97.6% | –
11 | H-L-Dpr-L-Ala-L-Asp-L-His-NH2 | 94.5% | 97.5% | –
12 | H-L-Dpr-L-Ala-L-Asp-D-His-OH | 66.5% | 86.3% | –
13 | H-L-Dpr-D-Ala-L-Glu-L-His-OH | 93.2% | – | –
14 | C[C@H](NC(=O)[C@@H](N)CN)C(=O)N1CCC[C@H]1C(=O)N[C@@H](Cc1c[nH]cn1)C(=O)O [H-L-Dpr-L-Ala-L-Pro-L-His-OH] (H-[Dap]APH-OH) | 76.7% | 93.9% | PHOTOPROTECTION EFFICIENCY [4]: 56.8%
15 | H-L-Dpr-D-Ala-L-Asp-L-His-OH | 95.4% | 98.8% | –
16 | H-L-Dpr-D-Ala-L-Glu-L-His-NH2 | 95.2% | 97.7% | –
17 | H-L-Dpr-D-Ala-L-Pro-L-His-NH2 | 98.1% | 98.3% | –
18 | H-L-Dpr-D-AIa-L-Asn-L-His-NH2 | 98.9% | – | –
19 | H-L-Dpr-L-Ala-L-Pro-L-His-NH2 | 88.7% | 96.3% | –
20 | C[C@@H](NC(=O)[C@@H](N)CN)C(=O)N1CCC[C@H]1C(=O)N[C@@H](Cc1c[nH]cn1)C(=O)O [H-L-Dpr-D-Ala-L-Pro-L-His-OH] (H-[Dap][dA]PH-OH) | 97.0% | 98.0% | PHOTOPROTECTION EFFICIENCY [4]: 92.0%; PROTECTIVE EFFICIENCY against DNA degradation [5]: 36.1%; REPAIR EFFICIENCY of DNA degradation ([6]; then 0.25 μg/mL for 3 h at 37° C.): 120%; REPAIR EFFICIENCY of DNA degradation ([6]; then 0.5 μg/mL for 3 h at 37° C.): 170%
21 | H-L-Dpr-L-Ala-L-Glu-L-His-OH | 75.6% | – | –
